Assays:
[1] = system: AMPK; assay: AMPK activation assay (phospho-AMPK Thr172 western blot) in THP1 cells; assay type: cell-based, Human; conditions: 30 min
Description: (§1) Effects of adenine on AMPK activation were evaluated based on the phosphorylation of AMPK protein upon adenine treatment. Mouse muscle cell C2C12, mouse fibroblast 3T3, human liver carcinoma cell Hep G2, human breast adenocarcinoma cell line MCF7 and human colon adenocarcinoma grade II cell line HT29, human umbilical vein endothelial cell HUVEC, Human acute monocytic leukemiacell THP1, human macrophage cell U937, murine microglia cell BV-2, and mouse neuroblastoma cell Neuro2A and dermal papilla cell were cultured in high-glucose Dulbecco's modified Eagle's medium (DMEM) containing 10% fetal bovine serum (FBS), 4 mM L-glutamine, 2 mM sodium pyruvate and 1% penicillin/streptomycin (Invitrogen GibcoBRL, Carlsbad, Calif., USA) at 37°C, under 5% CO2. Cells were plated at 3 × 10^5 per well in 6-well plates. Twenty-four hours after plating, adenine was added to the culture media as indicated. After 30 min cells were lysed and subject to western blot analysis. Equal amount of protein from each sample was separated by SDS-PAGE and then electroblotted on to PVDF membranes. Membranes were blocked with 3% BSA in PBS for 60 min and incubated with an anti-phospho-AMPK (Thr172) antibody (1:2,000, Cell signaling) or an anti-AMPK antibody (1:2,000, Cell signaling) at 4°C for 16 h followed by the corresponding secondary antibody for 1 h at room temperature (RT). Immunoreactive bands were detected by enhanced chemiluminescence and recorded using Kodak film. The detected signals were scanned and then quantified using TotalLab Quant software (TotalLab).

[2] = system: AMPK; assay: AMPK activation assay (phospho-AMPK Thr172 western blot) in 3T3 cells; assay type: cell-based, mouse; conditions: 30 min
Description: as §1

[3] = system: IL-6; assay: LPS-induced inflammatory response in THP1 macrophages, secreted IL-6 (ELISA); assay type: cell-based, human; conditions: 50 ng LPS 6 hr
Description: Effects of adenine on inflammatory response were evaluated in human THP1 macrophage by examining protein level of intracellular COX-2 and secreted TNFα, IL-1β and IL-6. Differentiation of THP1 monocytes into macrophages was induced by 50 nM PMA for 24 hr. THP1 macrophages were further stimulated by 50 ng LPS for 6 hr in the presence of 10-600 µM of adenine or vehicle followed by cell lysis and western blot analysis. Equal amounts of protein were separated by SDS-PAGE and then electroblotted on to PVDF membranes. Membranes were blocked with 3% BSA in PBS for 60 min and incubated with an anti-COX-2 antibody (1:1,000, Cell signaling), an anti-actin antibody (1:5,000, Cell signaling) at 4° C for 16 h followed by the corresponding secondary antibody for 1 h at room temperature (RT). Immunoreactive bands were detected by enhanced chemiluminescence and recorded using Kodak film. The detected signals were scanned and then quantified using TotalLab Quant software (TotalLab). The secreted TNFα, IL-1β and IL-6 were analyzed by enzyme-linked immunosorbent assays.

[4] = system: AMPK; assay: AMPK activation assay (phospho-AMPK Thr172 western blot) in dermal papilla cells; assay type: cell-based; conditions: 30 min
Description: as §1

[5] = system: muscle cell C2C12; assay: Glucose uptake in vitro (fluorescent glucose analog 2-NBDG); assay type: cell-based, Mouse; conditions: C2C12 cells, 30 min, mean±SEM of three experiments
Description: Effects of adenine on glucose uptake were analyzed by measuring the uptake of fluorescent glucose analog (2-NBDG, Molecular Probes) in muscle cell C2C12. C2C12 cells were treated with indicated concentrations of adenine for 30 min at 37°C, and then incubated with 500 µM of fluorescent glucose analog. After 5 min incubation at room temperature, cells were washed three times with Kreb-Hepes buffered solution and fixed in 70% alcohol. The fluorescence of glucose analog in cells was measured using a Fluorescence Microplate Reader System.

[6] = system: AMPK; assay: AMPK activation assay (phospho-AMPK Thr172 western blot) in C2C12 cells; assay type: cell-based, Mouse; conditions: 30 min
Description: as §1

[7] = system: Hep G2; assay: Cancer cell growth inhibition assay, Hep G2; assay type: cell-based; conditions: Homo sapiens; HepG2 cell proliferation, 72 h, cell counting
Description: Human liver hepatocellular carcinoma cell line Hep G2, human breast adenocarcinoma cell line MCF7 and human colon adenocarcinoma grade II cell line HT29 were used to evaluate the effects of adenine on cell proliferation. Those cell lines were obtained from ATCC and were cultured in high-glucose Dulbecco's modified Eagle's medium (DMEM) containing 10% fetal bovine serum (FBS), 4 mM L-glutamine, 2 mM sodium pyruvate and 1% penicillin/streptomycin (Invitrogen GibcoBRL, Carlsbad, Calif., USA) at 37°C under 5% CO2. Cells were plated at 1 × 10^5 per well (6-well plate). Twenty-four hours after plating, cells were treated with indicated concentration of adenine for 72 h and then followed by cell counting. Cells were detached using trypsin-EDTA solution and stained with trypan blue. The living cells were counted using hemocytometer.

[8] = system: Aβ infusion mice; assay: Aβ-induced Alzheimer's disease model mice, Morris water maze assay; assay type: in vivo, C57BL/6J mice; conditions: AD mice, daily IP adenine 0.01, 0.1, 5 or 30 mg/kg for 4 weeks, vs control AD mice
Description: Aβ25-35 was purchased from Sigma-Aldrich (St. Louis, Missouri). The peptides were dissolved in distilled saline and aggregated by incubation at 37°C for 7 days before injection. C57BL/6J mice were maintained at 22° C under a 12-h light/dark cycle. Adult mice were anesthetized by ketamine (500 mg/kg) and xylazine (100 mg/kg) and placed in a stereotaxic frame. Five nmol of the aggregated Aβ25-35 were injected into the lateral ventricle using a 10 µl Hamilton syringe. The target anterior-posterior (AP), medial-lateral (ML) and dorsoventral coordinates were -0.5 mm, ±1 mm and -2.5 mm relative to the bregma. To evaluate the effect of adenine on neurodegenerative disease, Aβ infusion mice were daily intraperitoneally injected with 0.01, 0.1, 5 or 30 mg/kg bodyweight of adenine or vehicle for 4 weeks. The cognitive functions of these mice were analyzed by using Morris water maze assay after 4 weeks injection. The water maze was performed in a circular pool filled with water and a platform was submerged below the water's surface in the target quadrant for hidden platform test. During the 5-day hidden platform test, mice were randomly placed into starting points of the pool in each daily trial (6 trials per day). […] Mice were allowed to swim in the maze for 60 s and recorded by a video camera. The latency to find the platform and swim paths was analyzed by software.

In the case of Nc1ncnc2nc[nH]c12 [Adenine, adenine], the “AMPK activation (fold to control)” value ([1]; adenine 1 microM) is reported as 1.2 fold to control, the “AMPK activation (fold to control)” value ([1]; adenine 10 microM) is reported as 2.2 fold to control and the “AMPK activation (fold to control)” value ([1]; adenine 100 microM) is reported as 3.7 fold to control. The “AMPK activation (fold to control)” value ([1]; adenine 200 microM) was 4.3 fold to control, the “AMPK activation (fold to control)” value ([1]; adenine 600 microM) was 4.2 fold to control and the “AMPK activation (fold to control)” value ([2]; adenine 1 microM) was 1.1 fold to control. For the same compound, the “AMPK activation (fold to control)” value ([2]; adenine 10 microM) was 1.5 fold to control, the “AMPK activation (fold to control)” value ([2]; adenine 100 microM) was 2.9 fold to control and the “AMPK activation (fold to control)” value ([2]; adenine 200 microM) was 4.0 fold to control. For the same compound, the “AMPK activation (fold to control)” value ([2]; adenine 600 microM) was 4.2 fold to control, the “IL-6 (% to control)” value ([3]; adenine 10 microM) was 88±6.3 % to control and the “IL-6 (% to control)” value ([3]; adenine 100 microM) was 21±7.8 % to control. The “IL-6 (% to control)” value ([3]; adenine 600 microM) was 14±6.2 % to control, the “AMPK activation (fold to control)” value ([4]; adenine 1 microM) was 1.1 fold to control and the “AMPK activation (fold to control)” value ([4]; adenine 10 microM) was 1.4 fold to control. The “AMPK activation (fold to control)” value ([4]; adenine 100 microM) was 2.1 fold to control, the “AMPK activation (fold to control)” value ([4]; adenine 200 microM) was 2.5 fold to control and the “AMPK activation (fold to control)” value ([4]; adenine 600 microM) was 2.8 fold to control. The “Glucose uptake (% to control)” value ([5]; adenine 1 microM) was 117±8.1 % to control, the “Glucose uptake (% to control)” value ([5]; adenine 10 microM) was 261±13.4 % to control and the “Glucose uptake (% to control)” value ([5]; adenine 100 microM) was 315±11.9 % to control. For the same compound, the “Glucose uptake (% to control)” value ([5]; adenine 600 microM) was 338±16.5 % to control, the “AMPK activation (fold to control)” value ([6]; adenine 1 microM) was 1.2 fold to control and the “AMPK activation (fold to control)” value ([6]; adenine 10 microM) was 1.7 fold to control. For the same compound, the “AMPK activation (fold to control)” value ([6]; adenine 100 microM) was 3.2 fold to control, the “AMPK activation (fold to control)” value ([6]; adenine 200 microM) was 3.9 fold to control and the “AMPK activation (fold to control)” value ([6]; adenine 600 microM) was 4.1 fold to control. For the same compound, the IC50 [7] was 544 µM, the “time to find platform (hidden platform test)” value ([8]; dose-dependent) was “significantly shorter time” and the “percentage time in target quadrant (probe assay)” value [8] was “higher percentage time”.
